Patent US20100222421A1, “Usage of Baicalein in the Preparation of a Pharmaceutical Composition for the Treatment of Traumatic Brain Injury” (National Defense Medical Center, priority 2009, published 2010)

Experiments:
[1] = tested on: rats with controlled cortical impact (CCI) injury; assay: Rotarod test after CCI injury; assay type: in vivo, rat; conditions: for performance on the rotarod test versus vehicle-treated rats: days 1 to 28, P<0.05
Procedure: (§1) A previously described CCI injury procedure was utilized (Chen et al., 2003). Male Sprague-Dawley rats, which have body weight of 250-300 g, were anaesthetized with sodium pentobarbital (i.p.; 50 mgkg^−1; Rhone Merieux, Harlow, UK) and placed in a stereotaxic frame. A 5-mm craniotomy was performed over the left parietal cortex, centered on the coronal suture and 3 mm lateral to the sagittal suture. Considerable care was taken to avoid injury to the underlying dura. Injury was made using a pneumatic piston with a rounded metal tip (2.5 mm diameter) that was angled 22.5° C. to the vertical so that the tip was perpendicular with the brain surface at the centre of the craniotomy. A velocity of 4 ms^−1 and a deformation depth 2 mm below the dura were used. The bone flap was immediately replaced and sealed, and the scalp was closed with sutures. Body temperature was monitored throughout the surgery by a rectal probe; temperature was maintained at 37.0±0.5° C. using a heated pad. Rats were placed in a heated cage to maintain body temperature, while recovering from anaesthesia.
Baicalein (30 mg kg^−1) dissolved in 10% dimethyl sulphoxide (0.25-0.3 mL) or a corresponding volume of vehicle (10% dimethyl sulphoxide) was administered i.p. immediately following injury or daily for 4 days (immediately, 25, 49 and 73 h) after injury. Behaviour testing using the rotarod, tactile adhesive removal, mNSS and beam walk tests was performed at 28 hours as well as 4, 7, 14, 21 and 28 days post-injury. […]
An accelerating rotarod was used to measure rat motor function and balance (Hamm, 2001). Each rat was placed on the rotarod cylinder, and the time for which the animal remained on the rotarod was measured. […] One hour before CCI, the mean duration on the device was recorded with three rotarod measurements as the pre-injury baseline values. Post-injury latencies were expressed as a percentage of their respective baseline values to reduce inter-animal variability.

IL-1β mRNA = assay: Real-time quantitative RT-PCR, IL-1β mRNA after CCI injury; assay type: in vivo, rat; conditions: single-dose 30 mg kg^-1 i.p.; ipsilateral cortex, 6 h after injury; P<0.01
Procedure: as §1, with “The bone flap was immediately replaced and sealed, and the scalp was closed with sutures.” left out, “[…] Testing after injury was as follows: (1) real-time quantitative RT-PCR analysis for TNF-α, IL-1β and IL-6 mRNA expression at 6 h post-injury (n=7 for each group); (2) FluoroJade B (FJB) staining, TNF-α, IL-1β and IL-6 immunohistochemistry, as well as ELISA at 24 h post-injury” for “Rats were placed in a heated cage”, “assess degenerative neurons and to determine cytokine expression (n=7 for each group). […] Approximately 50 mg tissue was collected” for “maintain body temperature, while recovering”, “the ipsilateral (injured) hemisphere and processed for real-time quantitative RT-PCR. […]” for “anaesthesia.”

Structure (SMILES): O=c1cc(-c2ccccc2)oc2cc(O)c(O)c(O)c12 [baicalein]
- rotarod test, multiple-dose versus single-dose treatment ([1]; 30 mg kg^-1 i.p., days 1, 4, 7 and 21 after injury): significantly more effective
- performance on the rotarod test versus vehicle-treated rats ([1]; multiple-dose 30 mg kg^-1 i.p. daily for 4 days): significantly better
- performance on the rotarod test versus vehicle-treated rats ([1]; single-dose 30 mg kg^-1 i.p. immediately after injury): significantly better
- IL-1β mRNA level, % of level in vehicle-treated injured rats (IL-1β mRNA): 63%
